Results taken from patent US12240828B2, “Heteroaromatic compounds as vanin inhibitors” (Boehringer Ingelheim International GmbH, priority 2018, dated 2025).

Experiments:
[1] = target: T1, FLAG-tagged Vanin-1 (AA 22-493, T26I) (Homo sapiens, UniProt O95497, T26I); assay: Vanin-1 enzymatic assay; format: biochemical; details: 0.1 nM Vanin-1, 3 μM D-pantethine, pantothenic acid formation by RapidFire MS; geometric mean if multiple measurements; read-out: VNN-1 IC50
T1 construct: FLAG-tagged Vanin-1 (AA 22-493, T26I, produced internally); FLAG; made in house
T1 sequence (O95497 22-493 T26I): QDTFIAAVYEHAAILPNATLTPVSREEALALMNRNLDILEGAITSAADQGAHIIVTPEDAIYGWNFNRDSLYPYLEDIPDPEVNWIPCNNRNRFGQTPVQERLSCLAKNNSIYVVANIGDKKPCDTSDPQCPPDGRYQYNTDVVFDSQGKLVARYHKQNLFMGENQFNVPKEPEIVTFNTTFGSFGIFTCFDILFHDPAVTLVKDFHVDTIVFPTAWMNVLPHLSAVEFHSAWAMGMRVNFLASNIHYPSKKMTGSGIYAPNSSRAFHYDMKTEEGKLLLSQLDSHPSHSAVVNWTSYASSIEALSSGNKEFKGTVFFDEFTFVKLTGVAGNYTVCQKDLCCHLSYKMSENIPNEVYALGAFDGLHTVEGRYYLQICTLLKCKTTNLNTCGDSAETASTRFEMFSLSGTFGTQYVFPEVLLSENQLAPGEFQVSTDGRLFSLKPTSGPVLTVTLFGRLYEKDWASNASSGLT
Protocol: The test compounds are dissolved in 100% DMSO at a concentration of 10 mM and in a first step diluted in DMSO to a concentration of 5 mM, followed by serial dilution steps in 100% DMSO. Dilution factor and number of dilution steps may vary according to needs. Typically 8 different concentrations by 1:5 dilutions are prepared, a further intermediate dilutions of the substances is carried out with assay buffer resulting in 1% final DMSO concentration in the assay.
0.1 nM of FLAG-tagged Vanin-1 (AA 22-493, T26I, produced internally) and test compounds are incubated at room temperature for 20 minutes in assay buffer (1 mM DTT, 0.0025% Brij-35, 50 mM HEPES, pH7.5). D-Pantethine (Sigma, Cat #P2125-5G) in assay buffer is added (final concentration 3 μM) and incubated for additional 30 minutes at room temperature. Total assay volume typically is 40 μl but might be adjusted according to needs. Reaction is stopped by adding equal volume of stop solution as the reaction mixture to reach 100 nM HD-pantothenic acid (as an internal standard) and 1% TFA. Assay plates are centrifuged for 2 minutes and the formation of pantothenic acid is detected by RapidFire Mass Spectrometry (mobile phase A: 0.1% formic acid and 0.01% trifluoroacetic acid in water; mobile phase B: 47.5% acetonitrile, 47.5% methanol, 0.1% formic acid and 0.01% trifluoroacetic acid in water) using a C18, 12 μL cartridge (Agilent Cat #G9205A).
The values given in Table I result from measurements of one or more samples. In case of multiple measurements the geometric mean values are given.

Pantetheinase (vanin) = assay: Human Whole Blood assay; format: cell-based; details: pantethine substrate, pantothenic acid formation by RapidFire MS, read-out: HWB IC50
Protocol: Human Whole Blood assay: Pantetheinase (vanin) converts panteheine into pantothenic acid and cysteamine. Accordingly, in the described protocol vanin activity is quantified by formation of pantothenic acid after pantetheine supplementation via pantethine. The assay is applicable to identify vanin inhibitors. Compound stocks are dissolved in DMSO at 10 mM. Further dilutions are performed in RPMI 1640 medium (Gibco, #A-10491-01) and final concentrations in the assay are 0.032 nM-500 nM.
Human blood is drawn into a blood bag (1% heparin, 50 I.E./mL). Blood is aliquoted into cavities of 96-deep-well plates at 290 μL and mixed with 10 μL compound solution or vehicle (30 sec at 1400 rpm on a shaker). Equilibration follows at room temperature, 250 rpm and for 30 min. The assay is starts by adding 10 μL of substrate solution (20 μM pantethine in 1 mM DTT, 0.0025% Brij-35, 50 mM HEPES, pH7.5) to each well, except for some blank wells which receive […] substrate buffer (1 mM DTT, 0.0025% Brij-35, 50 mM HEPES, pH7.5) only. Samples are thoroughly shaken (30 sec, 1400 rpm) and reaction is allowed to take place at room temperature, 250 rpm and for 5 min. The reaction is stopped by addition of a vanin tool inhibitor in excess (BI-1 total conc. 10 μM). Centrifugation of the plate follows at 4° C., 665 G for 10 min. Then the blood plasma samples (100 μL) are transferred into another 96-deep-well plate and proteins are precipitated (5 min on ice) by adding 100 μL of ice cold precipitation solution (1 μM labelled pantothenic acid (di-β-alanine-13C6,15N2 calcium salt, Sigma, #705837) in acetonitrile). Afterwards the plate is centrifuged (4° C., 3220 G, 10 min) and supernatants (50 μL) are collected into another 96-deep-well plate and mixed (10 sec, 1400 rpm) with 150 μL ice cold formic acid (0.1%, Carl Roth GmbH+Co.KG, #CP03.1). The formation of pantothenic acid is detected by RapidFire Mass Spectrometry. A TripleQuad 6500+ (ABSciex, Germany) is equipped with an LC-1290 system, a RapidFire autosampler (Agilent, Germany) and a C18 cartridge Type C 12 μL (Agilent Cat #G9526-80000). Mobile phase A is consisting of 0.09% formic acid and 0.01% trifluoroacetic acid in water and mobile phase B of 0.09% formic acid and 0.01% trifluoroacetic acid in acetonitrile/methanol/water=47.5/47.5/5.

IC50 [1]	IC50 (Pantetheinase (vanin))	Compound
0.22 nM	3.68 nM	CC(=O)N(C)[C@H]1CCN(C(=O)c2ccc(NC(C)(C)c3ccc(Cl)cc3)nc2)C1 [Example 4.7]
0.13 nM	1.78 nM	CC(=O)N(C)[C@H]1CCN(C(=O)c2ccc(NCc3cccnc3)nc2)C1 [Example 7.1, N-Methyl-N-[(3S)-1-(6-{[(pyridin-3-yl)methyl]amino}pyridine-3-carbonyl)pyrrolidin-3-yl]acetamide]
0.08 nM	1 nM	CN(C(=O)C1CC(F)(F)C1)[C@H]1CCN(C(=O)c2ccc(NC(C)(C)c3cccnc3)nc2)C1 [Example 8.2]
0.08 nM	0.85 nM	CC1(C#N)CCN(C(=O)c2ccc(NC(C)(C)c3cccnc3)nc2)C1 (stereo not shown) [Example 8.3]
0.13 nM	1.16 nM	CN(C(=O)C1CC(F)(F)C1)[C@H]1CCN(C(=O)c2ccc(NCc3cccnc3)nc2)C1 [Example 8.4]
0.14 nM	16.3 nM	CN(c1ncccn1)[C@H]1CCN(C(=O)c2ccc(NCc3cccnc3)nc2)C1 [Example 8.5]
0.15 nM	1.84 nM	CN(C(=O)C1CC1)[C@H]1CCN(C(=O)c2ccc(NC3(c4cncnc4)CC3)nc2)C1 [Example 8.6]
0.16 nM	3.29 nM	CC(=O)N(C)[C@H]1CCN(C(=O)c2ccc(NC(C)(C)c3cccnc3)nc2)C1 [Example 8.7]
0.32 nM	4.89 nM	O=C(c1ccc(NCc2ccc(Cl)cc2)nc1)N1CC[C@H](N2CCCC2=O)C1 [Example 8.9]
0.33 nM	2.16 nM	CN(C(=O)C1(C)CCC1)[C@H]1CCN(C(=O)c2ccc(NC3(c4cncnc4)CC3)nc2)C1 [Example 8.10]
0.34 nM	3.3 nM	O=C(c1ccc(NCc2cccnc2)nc1)N1CCC2(CCOCC2)C1 [Example 8.11]
0.41 nM	10.4 nM	O=C(c1ccc(NCc2ccc(Cl)cc2)nc1)N1CC[C@H](N2CCOC2=O)C1 [Example 8.12]
0.39 nM	2.78 nM	CC(=O)N(C)[C@H]1CCN(C(=O)c2ccc(N[C@@H](C)c3ccc(C(F)(F)F)nc3)nc2)C1 [Example 9.1, N-Methyl-N-[(3S)-1-(6-{[(1S)-1-[6-(trifluoromethyl)pyridin-3-yl]ethyl]amino}pyridine-3-carbonyl)pyrrolidin-3-yl]acetamide]
0.17 nM	4.28 nM	CC(=O)N(C)[C@H]1CCN(C(=O)c2ccc(N[C@@H](C)c3cccc(C(F)(F)F)c3)nc2)C1 [Example 9.3]
0.27 nM	4.23 nM	CC(=O)N(C)[C@H]1CCN(C(=O)c2ccc(N[C@@H](C)c3ccc(Cl)cc3)nc2)C1 [Example 9.4]
0.4 nM	2.19 nM	CC(=O)N(C)[C@H]1CCN(C(=O)c2ccc(N[C@@H](C)c3ccc(F)cc3)nc2)C1 [Example 9.5]
0.42 nM	5.03 nM	CC(=O)N(C)[C@H]1CCN(C(=O)c2ccc(N[C@@H](C)c3ccc(F)cc3F)nc2)C1 [Example 9.6]
